Reference: patent publication US20210101881A1 (Ancureall Pharmaceutical (Shanghai) Co., Ltd., priority 2018, published 2021)

How the values were obtained:
MOLM13 cells = experiment: Growth inhibition of CDK9-positive cell line MOLM13 in vitro (CCK8/MTT assay); format: cell-based, human; details: Homo sapiens, MOLM-13; MOLM13 cells, cultured 3 to 6 days, CCK8; read-out: IC50 of the compound for inhibiting cell growth, MOLM13 cells
CDK9/CyclinK kinase = molecular target: T1, CDK9/CyclinK kinase (Homo sapiens, UniProt P50750); experiment: CDK9 protein kinase activity, ADP-Glo CDK9/CyclinK kinase detection kit; format: biochemical; details: read-out: IC50 of the compound for inhibiting CDK9 protein kinase activity, CDK9/CyclinK kinase
T1 construct: purchased Promega Corporation V4105
Procedure: Measurement of CDK9 Protein Kinase Activity
The present compound was dissolved in DMSO (Sigma Aldrich), and the initial concentration of the compound was 1000 nM. A two-fold serial dilution was carried out. The specific operation of CDK9 kinase activity determination was carried out according to the ADP-Go™ CDK9/CyclinK kinase detection experimental procedure. […] Each test sample was tested in duplicate, and the test was repeated once. The inhibitory activity (IC50) of the compound on CDK9 protein kinase was calculated from the dose-inhibition curve of the compound.

T1 sequence (P50750 whole entry): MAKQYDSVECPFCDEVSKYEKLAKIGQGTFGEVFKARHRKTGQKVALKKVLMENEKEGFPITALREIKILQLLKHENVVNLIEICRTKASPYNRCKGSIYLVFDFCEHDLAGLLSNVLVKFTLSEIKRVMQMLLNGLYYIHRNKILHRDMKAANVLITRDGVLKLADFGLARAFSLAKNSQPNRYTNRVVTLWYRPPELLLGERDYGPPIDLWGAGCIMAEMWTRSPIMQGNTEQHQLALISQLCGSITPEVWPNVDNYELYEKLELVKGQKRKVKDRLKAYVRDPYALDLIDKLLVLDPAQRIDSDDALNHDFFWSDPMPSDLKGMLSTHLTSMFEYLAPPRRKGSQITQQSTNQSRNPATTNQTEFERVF
T1 sequence (O75909 whole entry partner): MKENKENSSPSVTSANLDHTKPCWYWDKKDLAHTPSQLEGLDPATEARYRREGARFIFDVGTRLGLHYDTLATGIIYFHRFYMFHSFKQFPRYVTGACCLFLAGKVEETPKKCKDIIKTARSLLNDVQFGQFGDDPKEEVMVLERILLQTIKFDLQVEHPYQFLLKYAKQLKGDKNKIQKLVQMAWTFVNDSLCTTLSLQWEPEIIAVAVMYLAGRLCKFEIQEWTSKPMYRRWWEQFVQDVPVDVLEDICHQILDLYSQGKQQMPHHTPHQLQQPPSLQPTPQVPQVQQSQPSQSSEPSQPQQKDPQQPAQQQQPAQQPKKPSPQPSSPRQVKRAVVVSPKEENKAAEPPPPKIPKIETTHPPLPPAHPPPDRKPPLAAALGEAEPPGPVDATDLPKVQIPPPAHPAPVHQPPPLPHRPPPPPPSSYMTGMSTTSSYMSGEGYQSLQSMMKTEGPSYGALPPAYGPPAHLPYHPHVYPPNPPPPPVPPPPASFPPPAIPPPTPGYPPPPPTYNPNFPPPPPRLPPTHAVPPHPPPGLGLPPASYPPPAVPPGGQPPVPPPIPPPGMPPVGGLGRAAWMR

Row | SMILES | IC50 (MOLM13 cells) [nM] | IC50 (CDK9/CyclinK kinase) [nM]
1 | CCN1CCN(c2cccc(Nc3ncc(F)c(-n4cc(C(N)=O)c5cc(O)ccc54)n3)c2)CC1 [Compound 163, 1-{2-[3-(4-ethyl-piperazin-1-yl)-phenylamino]-5-fluoro-pyrimidin-4-yl}-5-hydroxy-1H-indole-3-carboxamide] | < 1 | < 1
2 | Cc1cc(Nc2ncc(Cl)c(-n3cc(C(N)=O)c4ccccc43)n2)ccc1N1CCNCC1 [Compound 42, 1-[5-chloro-2-(3-methyl-4-piperazin-1-yl-phenylamino)-pyrimidin-4-yl]-1H-indole-3-carboxamide] | < 1 | 1 to 10
3 | Cc1cc(Nc2ncc(F)c(-n3cc(C(N)=O)c4ccccc43)n2)ccc1N(C)CCN(C)C [Compound 88, 1-(2-{4-[(2-dimethylamino-ethyl)-methyl-amino]-3-methyl-phenylamino}-5-fluoro-pyrimidin-4-yl)-1H-indole-3-carboxamide] | < 1 | 10 to 100
4 | Cc1cc(Nc2ncc(Cl)c(-n3cc(C(N)=O)c4ccccc43)n2)ccc1N1CCN(C)CC1 [Compound 56, 1-{5-chloro-2-[3-methyl-4-(4-methyl-piperazin-1-yl)-phenylamino]-pyrimidin-4-yl}-1H-indole-3-carboxamide] | < 1 | 1 to 10

The next lines start with the values.

Row | IC50 (MOLM13 cells) [nM] | IC50 (CDK9/CyclinK kinase) [nM] | SMILES
5 | < 1 | < 1 | NC(=O)c1cn(-c2nc(Nc3cccc(N4CCN(C(=O)N5CCOCC5)CC4)c3)ncc2F)c2ccccc12 [Compound 167, 1-(5-fluoro-2-{3-[4-(morpholin-4-carbonyl)-piperazin-1-yl]-phenylamino}-pyrimidin-4-yl)-1H-indole-3-carboxamide]
6 | < 1 | 1 to 10 | Cc1cc(Nc2ncc(F)c(-n3cc(C(N)=O)c4ccccc43)n2)ccc1N1CCN(C)CC1 [Compound 55, 1-{5-fluoro-2-[3-methyl-4-(4-methyl-piperazin-1-yl)-phenylamino]-pyrimidin-4-yl}-1H-indole-3-carboxamide]
7 | < 1 | 10 to 100 | Cc1cc(Nc2ncc(Cl)c(-n3cc(C(N)=O)c4ccccc43)n2)ccc1N(C)CCN(C)C [Compound 89, 1-(5-chloro-2-{4-[(2-dimethylamino-ethyl)-methyl-amino]-3-methyl-phenylamino}-pyrimidin-4-yl)-1H-indole-3-carboxamide]
